This is an account of results in patent US20240209028A1, “CNP COMPOUNDS” (priority 2022, published 2024).

The nature of data set [1]: Solubility of CNP compounds at pH 4.0 and pH 6.5. Format: physicochemical. The gist of the method:
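Supernatant peptide concentration was quantified by CAD after overnight room-temperature equilibration of incompletely dissolved samples. Nominal loading was ≥4000-5000 nmol/mL. Media were pH 4.0 sodium acetate 5 mM/glycerol 250 mM, or pH 6.5 sodium phosphate 8 mM/glycerol 23 mg/mL reached by stepwise NaOH addition.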

The target in data set [2] is T1, human natriuretic peptide receptor 2 (hNPR2) (Homo sapiens, UniProt P20594).
T1 construct: expressed in transfected cells; host or cells: HEK293 (ATCC CRL-1573), clone 35, co-transfected with pGloSensor-42F
T1 sequence (P20594 23-1047): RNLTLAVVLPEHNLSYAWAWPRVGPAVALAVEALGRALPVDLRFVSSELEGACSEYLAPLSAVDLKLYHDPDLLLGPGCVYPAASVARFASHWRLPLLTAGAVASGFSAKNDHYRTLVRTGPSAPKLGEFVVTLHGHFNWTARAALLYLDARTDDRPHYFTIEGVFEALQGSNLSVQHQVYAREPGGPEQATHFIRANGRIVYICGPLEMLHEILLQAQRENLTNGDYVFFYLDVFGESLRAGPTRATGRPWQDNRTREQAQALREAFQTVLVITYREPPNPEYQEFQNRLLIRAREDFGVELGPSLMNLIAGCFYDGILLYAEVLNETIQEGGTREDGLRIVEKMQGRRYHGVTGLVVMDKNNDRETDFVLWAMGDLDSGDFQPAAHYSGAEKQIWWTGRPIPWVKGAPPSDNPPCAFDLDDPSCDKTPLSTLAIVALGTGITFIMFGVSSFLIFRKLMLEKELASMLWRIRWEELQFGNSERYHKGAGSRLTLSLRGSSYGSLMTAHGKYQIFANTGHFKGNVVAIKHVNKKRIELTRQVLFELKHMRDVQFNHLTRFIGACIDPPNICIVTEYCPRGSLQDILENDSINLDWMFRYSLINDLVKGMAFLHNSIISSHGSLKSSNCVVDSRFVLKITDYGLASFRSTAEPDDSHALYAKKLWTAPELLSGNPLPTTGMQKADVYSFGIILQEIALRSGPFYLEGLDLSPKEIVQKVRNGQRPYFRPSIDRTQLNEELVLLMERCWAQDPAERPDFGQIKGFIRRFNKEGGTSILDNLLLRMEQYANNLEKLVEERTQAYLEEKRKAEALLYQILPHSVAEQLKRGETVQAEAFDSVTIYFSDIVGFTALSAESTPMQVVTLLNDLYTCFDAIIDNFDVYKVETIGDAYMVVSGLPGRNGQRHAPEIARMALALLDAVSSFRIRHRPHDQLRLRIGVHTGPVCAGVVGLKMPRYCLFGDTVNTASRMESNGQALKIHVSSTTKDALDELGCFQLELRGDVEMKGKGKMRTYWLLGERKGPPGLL
The data set can be described thus: In vitro hNPR2 activity assay (cGMP GloSensor reporter, HEK293). Format: cell-based. Particulars: potency relative to CNP22 (0065). The gist of the method: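 Potency is the EC50 from a four-parameter logistic fit, also expressed relative to the in-plate CNP22 control (×100), with at least two replicates. Compounds (ten concentrations, […], HSA-free diluent with 1% OVA, 0.01% Tween20) were incubated 30 min at 37 °C on HEK293 cells co-expressing hNPR2 and a GloSensor cGMP luciferase. Luminescence detected with Bright-Glo.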

Setting [3] is: 5 mM sodium acetate, 250 mM glycerol, pH 4.0, room temperature, read-out: Solubility at pH 4.0.
Setting [4] is: 8 mM sodium phosphate, 23 mg/mL glycerol, pH 6.5, room temperature, read-out: Solubility at pH 6.5.

The structures appear in SMILES notation. In brackets after ≈: the same amount, converted by molar mass. Where two headings read alike, the source gives them in different places. Starred links: 1 amine or outer side, 2 acyl side, 3 side chain; linkers in the order of their positions; H or OH if unused. Positions of bridges follow the written chain, without caps; N, C: chain ends. Residues, ends and D or L forms follow the SMILES beside them. *: point of attachment. C18 diacid = O=C(O)CCCCCCCCCCCCCCCCC(=O)*; γGlu = O=C(O)[C@H](CCC(=O)[*:2])N[*:1]; AEEA = NCCOCCOCC(=O)O

Broadly, the solubility is the concentration that dissolves in the medium under given conditions. `CC[C@H](C)[C@@H]1NC(=O)[C@H](CCCNC(=N)N)NC(=O)[C@H](CC(=O)O)NC(=O)[C@H](CC(C)C)NC(=O)[C@@H]2CCCN2C(=O)[C@H](CC(C)C)NC(=O)CNC(=O)[C@H](Cc2ccccc2)NC(=O)[C@@H](NC(=O)CNC(=O)[C@H](CO)NC(=O)[C@H](CO)NC(=O)[C@H](CC(C)C)NC(=O)CNC(=O)[C@H](CCCCN)NC(=O)[C@H](CCCCN)NC(=O)[C@H](CCC(N)=O)NC(=O)[C@H](C)NC(=O)CNC(=O)[C@H](CCCCN)NC(=O)[C@H](Cc2ccc(O)cc2)NC(=O)[C@H](CCCCN)NC(=O)[C@H](CCCNC(=N)N)NC(=O)[C@H](C)NC(=O)[C@H](CCC(N)=O)NC(=O)[C@@H]2CCCN2C(=O)[C@H](Cc2c[nH]cn2)NC(=O)[C@H](CCC(=O)O)NC(=O)[C@H](CCC(N)=O)NC(=O)COCCOCCNC(=O)COCCOCCNC(=O)CC[C@H](NC(=O)CC[C@H](NC(=O)CC[C@H](NC(=O)CC[C@H](NC(=O)CCCCCCCCCCCCCCCCC(=O)O)C(=O)O)C(=O)O)C(=O)O)C(=O)O)CSSC[C@@H](C(=O)O)NC(=O)CNC(=O)[C@H](CC(C)C)NC(=O)CNC(=O)[C@H](CO)NC(=O)[C@H](CC(C)C)NC(=O)[C@H](CO)NC(=O)CNC1=O` [compound 1473] ({C18 diacid-γGlu-γGlu-γGlu-γGlu-AEEA-AEEA}-QEHPQARKYKGAQKKGLSSGCFGLPLDRIGSLSGLGC-OH; disulfide 21-37; C-terminus assumed): the solubility in data set [1] (setting [3]) turned out to be 5.83 mM (≈ 29.1 mg/mL); in data set [1] (setting [4]) it was 1.76 mM (≈ 8.8 mg/mL). For the same molecule, in data set [2], the “hNPR2 0% HSA. [EC50% rel CNP]” value is recorded as 107.7%.
With `CC[C@H](C)[C@@H]1NC(=O)[C@H](CCCNC(=N)N)NC(=O)[C@H](CC(=O)O)NC(=O)[C@H](CC(C)C)NC(=O)[C@@H]2CCCN2C(=O)[C@H](CC(C)C)NC(=O)CNC(=O)[C@H](Cc2ccccc2)NC(=O)[C@@H](NC(=O)CNC(=O)[C@H](CCCCN)NC(=O)[C@H](CO)NC(=O)[C@H](CC(C)C)NC(=O)CNC(=O)[C@H](CCCCN)NC(=O)[C@H](CCCCN)NC(=O)[C@H](CCC(N)=O)NC(=O)[C@H](C)NC(=O)CNC(=O)[C@H](CCCCN)NC(=O)[C@H](Cc2ccc(O)cc2)NC(=O)[C@H](CCCCN)NC(=O)[C@H](CCCNC(=N)N)NC(=O)[C@H](C)NC(=O)[C@H](CCC(N)=O)NC(=O)[C@@H]2CCCN2C(=O)[C@H](Cc2c[nH]cn2)NC(=O)[C@H](CCC(=O)O)NC(=O)[C@H](CCC(N)=O)NC(=O)COCCOCCNC(=O)COCCOCCNC(=O)CC[C@H](NC(=O)CC[C@H](NC(=O)CC[C@H](NC(=O)CC[C@H](NC(=O)CC[C@H](NC(=O)CCCCCCCCCCCCCCCCC(=O)O)C(=O)O)C(=O)O)C(=O)O)C(=O)O)C(=O)O)CSSC[C@@H](C(=O)O)NC(=O)CNC(=O)[C@H](CC(C)C)NC(=O)CNC(=O)[C@H](CO)NC(=O)[C@H](CC(C)C)NC(=O)[C@H](CO)NC(=O)CNC1=O` [compound 1474] ({C18 diacid-γGlu-γGlu-γGlu-γGlu-γGlu-AEEA-AEEA}-QEHPQARKYKGAQKKGLSKGCFGLPLDRIGSLSGLGC-OH; disulfide 21-37; C-terminus assumed), the solubility came to 6.38 mM (≈ 32.9 mg/mL) in data set [1] (setting [3]) and 0.969 mM (≈ 5 mg/mL) in data set [1] (setting [4]). Moreover, in data set [2], the “hNPR2 0% HSA. [EC50% rel CNP]” value is 62.5%.
